Assay results reported in US20160051526A1, “The Local Treatment of Inflammatory Ophthalmic Disorders” (CRESSET BIOMOLECULAR DISCOVERY LTD, priority 2013, published 2016).

Assays:
[1] = system: Human cord derived mast cells; assay: Inhibition of Prostaglandin D2 release from human mast cells; type: cell-based; conditions: IgE challenged human cord derived mast cells; FIG. 2
Procedure: Human cord derived mast cells were cultured using the methodology described in Example 1. A commercially-available enzyme immunoassay (Cayman Chemical, Michigan, USA) was used to detect and quantify PGD2 released in the supernatant. The assay was conducted following the manufacturer's standard protocols. A standard curve ranging from 78-10,000 pg/ml PGD2 was prepared using the reagent provided and the optical density was then read within 60 min in a microplate reader (at 405 nm).

[2] = system: Human cord derived mast cells; assay: Release of Annexin-A1 from human mast cells (ELISA); type: cell-based; conditions: increasing concentrations, conditioned medium, FIG. 3
Procedure: Human cord derived mast cells were cultured using the methodology described in Example 1. Anx-A1 protein levels in conditioned medium were determined by ELISA. Briefly, 96-well flat-bottomed ELISA plates (Greiner, Gloucestershire, UK) were coated with 1 μg anti-Anx-A1 mAb 1B in bicarbonate buffer (pH 9.6) and incubated overnight at 4° C. After washing in the bicarbonate buffer, potentially uncoated sites were blocked with 100 μL of PBS containing 1% BSA for 1 h at room temperature. Sample aliquots (100 μL) or Anx-A1 standard solutions (prepared in 0.1% Tween-20 in PBS; concentration ranging between 10 and 0.001 μg/mL) were added for 1 h at 37° C. After extensive washing in PBS/Tween-20, 100 μL of a polyclonal rabbit anti-human Anx-A1 serum (Zymed, Invitrogen, Paisley, UK; diluted 1:1000 in PBS/Tween-20) was added (1 h at 37° C.) prior to incubation with donkey anti-rabbit 1 gG conjugated to alkaline phosphatase (1:1000; Sigma). The colour was developed by addition of 100 μL p-nitrophenyl phosphate (1 mg/mL in bicarbonate buffer, pH 9.6). Absorbance was read at 405 nm (with a 620-nm reference filter) in a microplate reader (TitertekTM, Vienna, Austria). Anx-A1 levels in the study samples were read against the standard curve and expressed as ng/ml.

Mice (Balb/C strain) = assay: Murine model of allergic conjunctivitis (ragweed pollen); type: in vivo, mouse; conditions: 40 μl of a 2% solution twice daily to the eye
Procedure: Mice (Balb/C strain) were sensitised to ragweed pollen by injection of the extract mixed with alum into the hind paw. A control group was immunised with alum alone. Five animals were used in each group.
Eleven days after the initial immunisation with ragweed pollen extract the mice were challenged daily with Ragweed pollen by application to the eye (150 mg/ml antigen) and dosed twice daily (prior and after challenge with ragweed extract) with either Phosphate buffered saline (PBS, control) or 40 μl of a 2% solution of Nalidixic acid. All applications were to the left eye with the right eye acting as a control.
Conjunctivitis was assessed on the 10th day 1 hour after the final application of the ragweed antigen. This assessment was performed by an operator unaware of the dosing protocol for the animals.
Clinical scores of each group were compared statistically using the non-parametric Kruskal-Wallis test with Dunns multiple comparison test correction applied (FIG. 4).
In addition, histological analysis of sections of the conjunctiva was used to assess the number of migrating eosinophils into the tissue, a key measure of the inflammatory process.

phosphatase PP2A = assay: Inhibition of the phosphatase PP2A; type: biochemical; conditions: statement in summary, no method or data given
[3] = system: Human derived cord mast cells; assay: Inhibition of histamine release from human mast cells; type: cell-based; conditions: IgE challenged human cord derived mast cells, 5 min incubation; FIG. 1
Procedure: Protocol: Human derived cord mast cells were cultured using the following method. Commercially available CD34^+ stem cells were cultured for […] in StemSpan (StemCell Technologies, Grenoble, France) serum-free medium supplemented with 100 ng/ml human SCF, 50 ng/ml IL-6 and 1 ng/ml IL-3, and 100 μg/ml penicillin/streptomycin (Peprotech, London, UK). After eight weeks, cells were cultured in StemSpan with 10% FCS. The cells were passaged into new medium every week. Cells were used for experiments between 11 and 18 weeks following confirmation by microscopic examination, c-kit and FcRε1 staining (by FACS), of mast cell morphology. For assessment of drug effects, Nalidixic acid was incubated for 5 min with aliquots of 2×10^5 CDMCs (cord derived mast cells) cultured in 10% FCS medium. A commercially-available enzyme immunoassay was used to detect and quantify histamine released in the supernatant (SPI bio, Strasbourg, France). The assay was conducted following the manufacturer's standard protocols. A standard curve ranging from 0.39-50 nM histamine was prepared using the reagent provided and the optical density was then read within 60 min in a microplate reader (at 405 nm). In some cases, the total cell content of histamine was established by freeze thawing of cells prior to challenge.

male C57BL/6 mice = assay: Murine model of endotoxin induced uveitis; type: in vivo, mouse; conditions: 0.1 μg intravitreal co-injected with LPS; about 15 hours after endotoxin; FIG. 5
Procedure: The efficacy of locally applied Nalidixic acid as a potential treatment for uveitis was explored. Experimental uveitis was induced in male C57BL/6 mice (n=5 animals per group) by the intravitreal injection of the endotoxin lipopolysaccharide (LPS 0.5 ng/ml) co-injected with either vehicle (phosphate buffered saline) or Nalidixic acid at a final concentration of 0.1 μg into alternate eyes. The other eye acting as control. The inflammatory response in this model is characterised by invasion of inflammatory cells and in particular invasion of neutrophils into the retina peaks at approximately 15 hours after endotoxin treatment at which time the animals were culled. Retinas from the animals were dissected and digested into a single cell suspension. Cell numbers from retinal tissue were measured by fluorescence-activated cell sorting (FACS) analysis.

SMILES: CCn1cc(C(=O)O)c(=O)c2ccc(C)nc21 [Nalidixic acid]
- inhibition of the inflammatory prostanoid PGD2 release [1]: dose related inhibition
- Annexin-A1 released from human mast cells [2]: increase
- clinical scores of conjunctivitis (Mice (Balb/C strain); assessed 10th day, 1 hour after final ragweed challenge, FIG. 4): significant attenuation of the development of conjunctivitis
- number of migrating eosinophils in conjunctival tissue (histology) (Mice (Balb/C strain); p<0.001 vs immunised PBS control): no migrating eosinophils
- inhibition of the phosphatase PP2A (phosphatase PP2A): potent inhibitors
- inhibition of the inflammatory mediator histamine (% net histamine release) [3]: dose related inhibition
- invading neutrophils in retinal tissue (FACS) (male C57BL/6 mice): clear reduction in invading neutrophils
